The test system of this test is subjects with NASH. Description: Clinical Trial A: enhanced liver fibrosis (ELF) score. The format is in vivo, human. Conditions: week 72; for Change in enhanced liver fibrosis (ELF) at end of trial compared to baseline relative to placebo, ETD: all randomised subjects, estimated treatment difference vs placebo (ANCOVA). An excerpt: In some embodiments the method of the invention reduces enhanced liver fibrosis (ELF). In some embodiments the term “enhanced liver fibrosis” (also referred to as ELF) as used herein refers to a score derived as a log-linear combination based on blood sample levels of hyaluronic acid (HA), amino-terminal propeptide of type III collagen (P3NP), and tissue inhibitor of metalloproteinase 1 (TIMP1) according to Formula (I): ELF=−7.412+0.681×ln(cHA)+0.775×ln(cP3NP)+0.494×ln(cTIMP1) (I) where cHA is the serum concentration of HA in ng/ml, cP3NP is the serum concentration of P3NP in ng/ml, and cTIMP1 is the serum concentration of TIMP1 in ng/ml.
A 72-week, randomised, double-blind, placebo-controlled, six-armed, parallel group, multicentre, multi-national phase 2 trial comparing once daily (OD) administration of semaglutide in three different doses (0.1 mg, 0.2 mg and 0.4 mg) with placebo in subjects with NASH was carried out. A total of 319 subjects received trial product, 302 subjects completed the trial, and 277 subjects had liver biopsy at trial week 72. Subjects received once daily (a) semaglutide of (i) 0.05 mg for 4 weeks and 0.1 mg for the remaining trial period, (ii) 0.05 mg for 4 weeks, 0.1 mg for 4 weeks, and 0.2 mg for the remaining trial period, (iii) 0.05 mg for 4 weeks, 0.1 mg for 4 weeks, 0.2 mg for 4 weeks, 0.3 mg for 4 weeks, and 0.4 mg for the remaining trial period, or (b) placebo in injection volumes corresponding to (i), (ii) or (iii). Administration was performed via subcutaneous injection using (a) an aqueous solution comprising 1.0 mg/ml semaglutide, 1.42 mg/ml disodium hydrogen phosphate dihydrate, 14.0 mg/ml propylene glycol, 5.50 mg/ml phenol at pH 7.4, or (b) a placebo solution comprising the same ingredients as (a) except no semaglutide. Inclusion criteria for subjects in the trial comprised (i) histologic evidence of NASH based on evaluation of a liver biopsy obtained up to 21 weeks before screening, (ii) a histological NAS >4 with a score of 1 or more in each sub-component of the score, and (iii) liver fibrosis stage 1, 2 or 3 according to the NASH-CRN. Screening was carried out prior to baseline in order to make assessments used to determine subject eligibility. Exclusion criteria for subjects in the trial comprised (i) documented causes of chronic liver disease other than NASH and (ii) no substantial alcohol consumption, defined in the trial as no more than 20 g ethanol per day for women or no more than 30 g ethanol per day for men. Baseline characteristics for all randomised subjects in the trial were as shown in Table A. The term “baseline” as used herein refers to the beginning of the trial prior to administration of semaglutide or placebo. […] The fibrosis stage was determined according to the Kleiner fibrosis classification.

As for “N-epsilon26-[2-(2-{2-[2-(2-{2-[(S)-4-Carboxy-4-(17-carboxyheptadecanoyl-amino)butyrylamino]ethoxy}ethoxy)acetylamino]ethoxy}ethoxy)acetyl] [Aib8, Arg34]GLP-1-(7-37) [Semaglutide]”, the “Change in enhanced liver fibrosis (ELF) at end of trial compared to baseline relative to placebo, ETD” value runs as follows: (0.1 mg OD s.c.) −0.35 [−0.57;; (0.2 mg OD s.c.) −0.40 [−0.62;; (0.4 mg OD s.c.) −0.57 [−0.79;. Also, the “Reduction of ELF compared to placebo (in words)” value (all tested semaglutide dosages) was “reduced ELF significantly more compared to placebo”.

The values above are taken from US11478533B2, “Semaglutide for use in medicine” (Novo Nordisk A/S, priority 2020, dated 2022).
